# Values of other authors as cited in patent EP2061448B1, “SUSTAINED RELEASE FORMULATION OF NALTREXONE” (Nalpropion Pharmaceuticals, Inc., priority 2006, dated 2007).
# Like-named read-outs stand apart in the source and are kept apart here.
# What was measured:
# [1] = initial 25 mg dose followed by 50 mg daily for 10 weeks
# [2] = oral administration, immediate release form
# [3] = tested on: pharmacologic effects of 25 mg of intravenously administered heroin
Compound,"Moderate to severe nausea, patients [1]",Tmax [2],"period of block of the pharmacologic effects of heroin ([3]; 50 mg of naltrexone hydrochloride, 25 mg of intravenously administered heroin)",duration of blockade ([3]; doubling the dose of naltrexone hydrochloride),duration of blockade ([3]; tripling the dose of naltrexone hydrochloride)
"O=C1CC[C@@]2(O)[C@H]3Cc4ccc(O)c5c4[C@@]2(CCN3CC2CC2)[C@H]1O5 [naltrexone, 17-(cyclopropylmethyl)-4,5α-epoxy-3,14-dihydroxymorphinan-6-one]",15%,approximately 1 hour,,,
naltrexone hydrochloride,,,≤ 24 hours,48 h,about 72 hours
